Like-named read-outs stand apart in the source and are kept apart here.
Assays:
rat [1] = test: inhibition of locomotor activity increase induced by a D-1 agonist; type: in vivo; conditions: for inhibition of locomotor activity increase (in words): rat, D-1 agonist 10 mg/kg p.o., for the invention's compounds doses of ca. 0.1 to 10 mg/kg p.o. or ca. 0.1 to 0.5 mg/kg s.c.
Protocol: In this test, the substance to be tested is applied one hour before the D-1 agonist, and the locomotor activity is measured under red light using photoelectric cells.

mouse = test: apomorphine induced rearing test; type: in vivo
Protocol: Thus when administered to the mouse at doses of ca. 0.05 to ca. 1 mg/kg p.o., there is observed a significant inhibition of the rearing induced by subcutaneous administration of 0.5 mg/kg of apomorphine. In this test, each mouse is contained in a glass cylinder (20 cm high, 8 cm diameter) on absorbent cardboard and rearing is quantified by accumulating the time spent with both forepaws off the ground during three 1-minute periods at 10 minute intervals after apomorphine administration. […] This test detects both classical and atypical anti-psychotics and thus has predictive value for efficacy in schizophrenia.

[2] = biological target: T1, dopamine receptors of the D-1 type (Bos taurus, UniProt Q95136); test: inhibition of the dopamine-induced stimulation of adenylate cyclase in homogenates of bovine retina; type: biochemical; conditions: calculated from IC50 according to Cheng and Prusoff, read-out: pKi, adenylate cyclase functional test (converted)
T1 construct: homogenates of bovine retina; from tissue; host or cells: bovine retina homogenate
T1 sequence (Q95136 whole entry): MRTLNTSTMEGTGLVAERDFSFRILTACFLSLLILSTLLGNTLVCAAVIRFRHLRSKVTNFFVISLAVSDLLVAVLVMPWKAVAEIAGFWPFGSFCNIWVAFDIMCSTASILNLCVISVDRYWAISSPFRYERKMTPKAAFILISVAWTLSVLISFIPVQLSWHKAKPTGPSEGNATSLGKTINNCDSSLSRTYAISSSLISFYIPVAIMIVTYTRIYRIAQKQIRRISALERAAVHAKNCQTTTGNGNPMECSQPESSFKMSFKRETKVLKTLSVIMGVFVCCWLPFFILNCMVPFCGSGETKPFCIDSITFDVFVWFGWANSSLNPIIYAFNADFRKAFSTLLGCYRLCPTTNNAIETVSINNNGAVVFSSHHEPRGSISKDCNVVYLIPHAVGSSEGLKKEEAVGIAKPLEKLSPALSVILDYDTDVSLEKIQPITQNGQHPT
Source text: At concentrations of ca. 1 nmol/l to ca. […] the compounds according to the invention effect strong inhibition of the dopamine-induced stimulation of adenylate cyclase in homogenates of bovine retina [for the method see R. Markstein, Journal Neural. Transmission 51, 39-59 (1981)].
This activity also indicates the use of the compounds according to the invention in schizophrenia.

rat [3] = test: cataleptogenic activity (catalepsy); type: in vivo; conditions: rat, 1, 3.2 and 10 mg/kg p.o., observation period of 8 hours
Protocol: Furthermore at doses of ca. 1 to ca. 10 mg/kg p.o., the compounds according to the invention effect no catalepsy of the rat. Cataleptogenic activity is assessed as described by G. Stille et al. in Arzneimittel Forschung 15, 841-843 (1965). The criterion for catalepsy is fulfilled when posture retention time is longer than 10 seconds. In view of the lack of cataleptogenic activity, the risk that the compounds according to the invention might cause extra-pyramidal side effects is improbable.

[4] = Mus musculus, po, 0.5 h, read-out: ED50, apomorphine-induced rearing
[5] = Mus musculus, sc, 0.5 h, read-out: ED50, apomorphine-induced rearing

**Q.** How did the inhibition at 2 mg/kg (rat [1]; Rattus norvegicus, Rat2, po, read-out: inhibition of locomotor activity increase) turn out when CN1CC[C@@H](c2ccccc2)[C@@H]2c3cccc4[nH]c(Cl)c(c34)C[C@H]21 (stereo in doubt) [phenylergoline, (+)-(5R)[5β, 9α, 10α]-2-chloro-6-methyl-9-phenylergoline, reference compound] was run?
**A.** 45%

**Q.** Which results are given for CN1CCN(C2=Nc3cc(Cl)ccc3Nc3ccccc32)CC1 [Clozapine, reference compound]?
**A.** ED50 (mouse; po, 0.5 h, mouse, p.o., after 30 minutes, apomorphine 0.5 mg/kg s.c., read-out: ED50, apomorphine-induced rearing): 4.3 mg/kg; ED50 (mouse; sc, 0.5 h, mouse, s.c., after 30 minutes, apomorphine 0.5 mg/kg s.c., read-out: ED50, apomorphine-induced rearing): 0.66 mg/kg; inhibition of locomotor activity increase (in words) (rat [1]): active

**Q.** What does the source list for Cc1cc(Cl)ccc1N1CCN(C)[C@@H]2Cc3cccc(O)c3C[C@H]21 [Example 2, (-)-[4aR,10aR]-l,2,3,4,4a,5,10,10a-octahydro-4-(4'-chloro-2'-methyl-phenyl)-1-methyl-benzo[g]quinoxaline-6-ol]?
**A.** ED50 (mouse; [4]): 0.38 mg/kg; ED50 (mouse; Mus musculus, po, 1 h, read-out: E50, apomorphine-induced rearing after subchronic treatment): 0.28 mg/kg; ED50 (mouse; Mus musculus, po, 1 h, read-out: ED50, apomorphine-induced rearing): 0.14 mg/kg; ED50 (mouse; [5]): 0.033 mg/kg; ED50 (mouse; Mus musculus, sc, 1 h, read-out: ED50, apomorphine-induced rearing): 0.04 mg/kg; inhibition at 1 mg/kg (rat [1]; Rattus norvegicus, po, read-out: inhibition of locomotor activity increase): 76%; inhibition of locomotor activity increase (in words) (rat [1]): inhibits the locomotor activity increase more potently; Ki [2]: 50.1 nM; catalepsy (rat [3]): fails to produce catalepsy

**Q.** For O=C(CCCN1CCC(O)(c2ccc(Cl)cc2)CC1)c1ccc(F)cc1 [Haloperidol, reference compound], which ED50 (mouse; [4]) is on record?
**A.** 0.03 mg/kg

**Q.** And the ED50 (mouse; [5])?
**A.** 0.008 mg/kg

Source: patent US5538971A, “Benzoquinoxalines, pharmaceutical compositions containing them and their use in treating schizophrenia” (Sandoz Ltd., priority 1991, dated 1996)
